In this experiment the target is T1, Ammonium transporter MEP2 (Saccharomyces cerevisiae (strain ATCC 204508 / S288c), UniProt P41948).
T1 sequence (P41948 whole entry): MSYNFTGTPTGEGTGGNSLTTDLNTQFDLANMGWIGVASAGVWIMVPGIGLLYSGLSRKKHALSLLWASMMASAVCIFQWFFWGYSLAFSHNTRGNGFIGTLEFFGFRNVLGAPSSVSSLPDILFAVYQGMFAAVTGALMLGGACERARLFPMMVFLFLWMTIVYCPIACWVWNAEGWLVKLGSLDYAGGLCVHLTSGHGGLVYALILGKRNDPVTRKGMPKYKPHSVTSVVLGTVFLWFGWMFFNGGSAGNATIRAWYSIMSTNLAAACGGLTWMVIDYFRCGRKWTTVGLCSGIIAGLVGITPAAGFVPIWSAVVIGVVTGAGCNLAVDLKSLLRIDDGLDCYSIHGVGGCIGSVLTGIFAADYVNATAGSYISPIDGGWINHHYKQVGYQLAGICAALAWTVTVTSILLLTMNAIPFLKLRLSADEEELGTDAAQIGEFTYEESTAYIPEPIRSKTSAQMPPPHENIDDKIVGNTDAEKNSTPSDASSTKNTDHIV
Kind of experiment: compound effects on MEP2-GFP, TOR pathway – S. cerevisiae, multiplex GFP fusions, cherry pick 3, SAR follow-up (AID 488812). As to conditions: inactive by the depositor's call.

The values that follow come from BindingDB's records for doi:10.7270/Q2MW2FMC (Nmmlsc, 2011).

Turning to `Oc1c(Cl)cc(Cl)c2cccnc12` [AS-229], a half-maximal response (EC50) required 36100 µM. The figure for `CCOC(=O)CS(=O)(=O)c1nc(-c2ccccc2)cc(C(F)(F)F)n1` [2-[4-phenyl-6-(trifluoromethyl)pyrimidin-2-yl]sulfonylacetic acid ethyl ester] is 68.2 µM; for `Nc1ncnc(Nc2cc(Cl)cc(Cl)c2)c1[N+](=O)[O-]` [MLS000581561] it is 74.4 µM.

One may read the EC50 as the concentration that produces a half-maximal response.
